Reference: patent US12043599B2, “Herbicidal compounds” (SYNGENTA PARTICIPATIONS AG, priority 2018, dated 2024)

Tests used:
Assay type in all cases: in vivo
wheat = experiment: Post-emergence crop safety test on wheat crop plants
Description: (§1) Seeds of a variety of test species are sown in standard soil in pots (Lolium perenne (LOLPE), Setaria faberi (SETFA), Alopecurus myosuroides (ALOMY), Echinochloa crus-galli (ECHCG), Avena fatua (AVEFA)). After cultivation for one day (pre-emergence) or after 8 days cultivation (post-emergence) under controlled conditions in a glasshouse (at 24/16° C., day/night; 14 hours light; 65% humidity), the plants are sprayed with an aqueous spray solution derived from the formulation of the technical active ingredient in acetone/water (50:50) solution containing 0.5% Tween 20 (polyoxyethelyene sorbitan monolaurate, CAS RN 9005-64-5). Compounds are applied at […]. The test plants are then grown in a glasshouse under controlled conditions in a glasshouse (at 24/16° C., day/night; 14 hours light; 65% humidity) and watered twice daily. After 13 days for pre and post-emergence, the test is evaluated for the percentage damage caused to the plant. The biological activities are shown in the following table on a five point scale (5=80-100%; 4=60-79%; 3=40-59%; 2=20-39%; 1=0-19%).
Using procedures outlines above, wheat and barley crop plants and a weed species (SETFA) are treated post-emergence with compound A11 of the present invention or comparator compound C1 (Compound A-38 from WO2014/096289) at the application rates indicated. The compounds were also applied to wheat in conjunction with the safener compound cloquintocet-mexyl (CQC) at 50 g/ha.

Setaria faberi (SETFA) [1] = experiment: Post-emergence herbicidal glasshouse test, percentage damage; settings: for SETFA POST percentage damage (five point scale): 250 g/h, evaluated after 13 days
Method in brief: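 Wheat, barley and Setaria faberi were sprayed post-emergence after 8 days' growth (24/16 °C, 14 h light, 65% humidity) with compound in acetone/water (50:50) containing 0.5% Tween 20, at the indicated rates. On wheat, compounds were also applied with cloquintocet-mexyl at 50 g/ha. Damage was scored after 13 days on a five-point scale (5=80-100% to 1=0-19%).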

barley = experiment: Post-emergence crop safety test on barley crop plants
Description: as §1
Using procedures outlines above, wheat and barley crop plants and a weed species (SETFA) are treated post-emergence with compound A11 of the present invention or comparator compound C1 (Compound A-38 from WO2014/096289) at the application rates indicated. […]

Avena fatua (AVEFA) [2] = experiment: Post-emergence herbicidal glasshouse test, percentage damage; settings: 250 g/h, evaluated after 13 days
Method in brief: (§2)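 Pot-grown grass weeds in standard soil were sprayed 1 day after sowing (pre-emergence) or after 8 days (post-emergence) with compound at 250 g/h in acetone/water (50:50) with 0.5% Tween 20. Glasshouse conditions were 24/16 °C day/night, 14 h light, 65% humidity. Damage was scored after 13 days on a five-point scale.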

[3] = tested on: Alopecurus myosuroides (ALOMY); experiment: as above; settings: 250 g/h, evaluated after 13 days
Method in brief: as §2

Lolium perenne (LOLPE) [4] = experiment: as above; settings: 250 g/h, evaluated after 13 days
Method in brief: as §2

[5] = tested on: Echinochloa crus-galli (ECHCG); experiment: as above; settings: 250 g/h, evaluated after 13 days
Method in brief: as §2

Avena fatua (AVEFA) [6] = experiment: Pre-emergence herbicidal glasshouse test, percentage damage; settings: 250 g/h, evaluated after 13 days
Method in brief: as §2

[7] = tested on: Alopecurus myosuroides (ALOMY); experiment: as above; settings: 250 g/h, evaluated after 13 days
Method in brief: as §2

Setaria faberi (SETFA) [8] = experiment: as above; settings: 250 g/h, evaluated after 13 days
Method in brief: as §2

Lolium perenne (LOLPE) [9] = experiment: as above; settings: 250 g/h, evaluated after 13 days
Method in brief: as §2

[10] = tested on: Echinochloa crus-galli (ECHCG); experiment: as above; settings: 250 g/h, evaluated after 13 days
Method in brief: as §2

Compound: CC#Cc1cc(C)c(C2C(=O)CC3(CCN(C(=O)OC)CC3)CC2=O)c(C)c1 [Compound A11]
- Wheat, percentage damage (wheat; rate 30): 10%
- Wheat, percentage damage (wheat; rate 60): 30%
- Wheat, percentage damage (wheat; rate 60 + CQC (safener cloquintocet-mexyl at 50 g/ha)): 0%
- crop safety vis-à-vis prior art compound C1 (wheat; wheat and barley): significantly improved crop safety
- overall weed control (Setaria faberi (SETFA) [1]): good overall weed control
- SETFA, percentage damage (Setaria faberi (SETFA) [1]; rate 30): 100%
- SETFA, percentage damage (Setaria faberi (SETFA) [1]; rate 60): 100%
- Barley, percentage damage (barley; rate 30): 10%
- Barley, percentage damage (barley; rate 60): 40%

Compound: CC#Cc1cc(C)c(C2=C(OC(=O)OC)CC3(CCN(C(=O)OC(C)(C)C)CC3)CC2=O)c(C)c1 [Compound P21]
- AVEFA POST percentage damage (five point scale) (Avena fatua (AVEFA) [2]): 5 (5=80-100%)
- ALOMY POST percentage damage (five point scale) [3]: 5 (5=80-100%)
- LOLPE POST percentage damage (five point scale) (Lolium perenne (LOLPE) [4]): 5 (5=80-100%)
- ECHCG POST percentage damage (five point scale) [5]: 5 (5=80-100%)
- AVEFA PRE percentage damage (five point scale) (Avena fatua (AVEFA) [6]): 4 (4=60-79%)
- ALOMY PRE percentage damage (five point scale) [7]: 5 (5=80-100%)
- SETFA PRE percentage damage (five point scale) (Setaria faberi (SETFA) [8]): 5 (5=80-100%)
- LOLPE PRE percentage damage (five point scale) (Lolium perenne (LOLPE) [9]): 5 (5=80-100%)
- ECHCG PRE percentage damage (five point scale) [10]: 5 (5=80-100%)
- SETFA POST percentage damage (five point scale) (Setaria faberi (SETFA) [1]): 5 (5=80-100%)

Compound: CC#Cc1cc(C)c(C2C(=O)CC3(CCN(C(=O)COCCCl)CC3)CC2=O)c(C)c1 [Compound A200]
- AVEFA POST percentage damage (five point scale) (Avena fatua (AVEFA) [2]): 5 (5=80-100%)
- ALOMY POST percentage damage (five point scale) [3]: 5 (5=80-100%)
- LOLPE POST percentage damage (five point scale) (Lolium perenne (LOLPE) [4]): 5 (5=80-100%)
- ECHCG POST percentage damage (five point scale) [5]: 5 (5=80-100%)
- AVEFA PRE percentage damage (five point scale) (Avena fatua (AVEFA) [6]): 4 (4=60-79%)
- ALOMY PRE percentage damage (five point scale) [7]: 5 (5=80-100%)
- SETFA PRE percentage damage (five point scale) (Setaria faberi (SETFA) [8]): 5 (5=80-100%)
- LOLPE PRE percentage damage (five point scale) (Lolium perenne (LOLPE) [9]): 5 (5=80-100%)
- ECHCG PRE percentage damage (five point scale) [10]: 5 (5=80-100%)
- SETFA POST percentage damage (five point scale) (Setaria faberi (SETFA) [1]): 5 (5=80-100%)

Compound: CC#Cc1cc(C)c(C2C(=O)CC3(CCN(C(=O)NC(C)=O)CC3)CC2=O)c(C)c1 [Compound A71]
- AVEFA POST percentage damage (five point scale) (Avena fatua (AVEFA) [2]): 5 (5=80-100%)
- ALOMY POST percentage damage (five point scale) [3]: 5 (5=80-100%)
- LOLPE POST percentage damage (five point scale) (Lolium perenne (LOLPE) [4]): 5 (5=80-100%)
- ECHCG POST percentage damage (five point scale) [5]: 5 (5=80-100%)
- AVEFA PRE percentage damage (five point scale) (Avena fatua (AVEFA) [6]): 5 (5=80-100%)
- ALOMY PRE percentage damage (five point scale) [7]: 5 (5=80-100%)
- SETFA PRE percentage damage (five point scale) (Setaria faberi (SETFA) [8]): 5 (5=80-100%)
- LOLPE PRE percentage damage (five point scale) (Lolium perenne (LOLPE) [9]): 5 (5=80-100%)
- ECHCG PRE percentage damage (five point scale) [10]: 5 (5=80-100%)
- SETFA POST percentage damage (five point scale) (Setaria faberi (SETFA) [1]): 5 (5=80-100%)

Compound: CC#Cc1cc(C)c(C2C(=O)CC3(CCN(C(=O)Cc4ccncn4)CC3)CC2=O)c(C)c1 [Compound A101]
- AVEFA POST percentage damage (five point scale) (Avena fatua (AVEFA) [2]): 5 (5=80-100%)
- ALOMY POST percentage damage (five point scale) [3]: 5 (5=80-100%)
- LOLPE POST percentage damage (five point scale) (Lolium perenne (LOLPE) [4]): 5 (5=80-100%)
- ECHCG POST percentage damage (five point scale) [5]: 5 (5=80-100%)
- AVEFA PRE percentage damage (five point scale) (Avena fatua (AVEFA) [6]): 4 (4=60-79%)
- ALOMY PRE percentage damage (five point scale) [7]: 4 (4=60-79%)
- SETFA PRE percentage damage (five point scale) (Setaria faberi (SETFA) [8]): 5 (5=80-100%)
- LOLPE PRE percentage damage (five point scale) (Lolium perenne (LOLPE) [9]): 5 (5=80-100%)
- ECHCG PRE percentage damage (five point scale) [10]: 5 (5=80-100%)
- SETFA POST percentage damage (five point scale) (Setaria faberi (SETFA) [1]): 5 (5=80-100%)

Compound: CC#Cc1cc(C)c(C2C(=O)CC3(CCN(C(=O)[C@@H](C)OC)CC3)CC2=O)c(C)c1 [Compound A154]
- AVEFA POST percentage damage (five point scale) (Avena fatua (AVEFA) [2]): 5 (5=80-100%)
- ALOMY POST percentage damage (five point scale) [3]: 5 (5=80-100%)
- LOLPE POST percentage damage (five point scale) (Lolium perenne (LOLPE) [4]): 5 (5=80-100%)
- ECHCG POST percentage damage (five point scale) [5]: 5 (5=80-100%)
- AVEFA PRE percentage damage (five point scale) (Avena fatua (AVEFA) [6]): 5 (5=80-100%)
- ALOMY PRE percentage damage (five point scale) [7]: 5 (5=80-100%)
- SETFA PRE percentage damage (five point scale) (Setaria faberi (SETFA) [8]): 5 (5=80-100%)
- LOLPE PRE percentage damage (five point scale) (Lolium perenne (LOLPE) [9]): 5 (5=80-100%)
- ECHCG PRE percentage damage (five point scale) [10]: 5 (5=80-100%)
- SETFA POST percentage damage (five point scale) (Setaria faberi (SETFA) [1]): 5 (5=80-100%)
